Test results from US7432275B2, “Carboxylic acid, phosphate or phosphonate substituted quinazolin-4-ylamine analogues as capsaicin receptor modulators” (Neurogen Corporation, priority 2002, dated 2008).

Target: T1, human capsaicin receptor (Homo sapiens, UniProt Q8NER1)
Experiment: Capsaicin receptor binding assay ([3H]RTX competition, membranes of VR1-transfected HEK293 cells)
Conditions: not given
From the text: This Example illustrates the preparation of VR1-transfected cells and membrane preparations for use in binding assays (Example 5) and functional assays (Example 6).
This Example illustrates a representative assay of capsaicin receptor binding that may be used to determine the binding affinity of compounds for the capsaicin (VR1) receptor.
Binding studies with [^3H] […] 262:883-888.

T1 sequence (Q8NER1 whole entry): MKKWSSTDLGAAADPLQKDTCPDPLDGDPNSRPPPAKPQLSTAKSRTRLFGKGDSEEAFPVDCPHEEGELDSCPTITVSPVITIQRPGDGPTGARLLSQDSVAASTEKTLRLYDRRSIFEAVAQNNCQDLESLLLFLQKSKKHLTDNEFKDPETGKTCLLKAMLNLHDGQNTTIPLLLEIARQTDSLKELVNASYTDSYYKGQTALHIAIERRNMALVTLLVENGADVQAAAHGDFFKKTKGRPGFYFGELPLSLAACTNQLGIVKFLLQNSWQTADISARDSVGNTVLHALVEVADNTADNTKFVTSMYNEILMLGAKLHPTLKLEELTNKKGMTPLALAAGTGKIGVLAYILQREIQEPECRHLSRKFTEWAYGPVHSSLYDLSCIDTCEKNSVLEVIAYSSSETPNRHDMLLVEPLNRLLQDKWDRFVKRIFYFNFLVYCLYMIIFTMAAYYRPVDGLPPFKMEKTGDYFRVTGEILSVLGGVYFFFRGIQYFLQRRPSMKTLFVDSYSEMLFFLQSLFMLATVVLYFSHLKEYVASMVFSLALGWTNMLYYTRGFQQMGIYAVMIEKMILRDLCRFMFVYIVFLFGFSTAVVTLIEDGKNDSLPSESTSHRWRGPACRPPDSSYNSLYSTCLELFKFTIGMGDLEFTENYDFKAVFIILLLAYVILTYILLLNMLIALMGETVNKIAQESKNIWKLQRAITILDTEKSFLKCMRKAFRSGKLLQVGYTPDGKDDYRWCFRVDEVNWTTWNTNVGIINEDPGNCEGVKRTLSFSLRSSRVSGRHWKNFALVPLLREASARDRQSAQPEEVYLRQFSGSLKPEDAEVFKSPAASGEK

Compound	Ki
CCOP(=O)(Cc1nc(Nc2ccc(C(C)(C)C)cc2)c2ccc(-c3ncccc3C(F)(F)F)cc2n1)OCC [Compound 17, [4-(4-tert-Butyl-phenylamino)-7-(3-trifluoromethyl-pyridin-2-yl)-quinazolin-2-ylmethyl]-phosphonicacid diethyl ester]	< 1000 nM
CCOP(=O)(Cc1nc(Nc2ccc(C(F)(F)F)cc2)c2ccc(-c3ncccc3C)cc2n1)OCC [Compound 5, [7-(3-Methyl-pyridin-2-yl)-4-(4-trifluoromethyl-phenylamino)-quinazolin-2-ylmethyl]-phosphonicacid diethyl ester]	< 1000 nM
CCOP(=O)(Cc1nc(Nc2ccc(C(C)(C)C)cc2)c2ccc(-c3ncccc3C)cc2n1)OCC [Compound 16, [4-(4-tert-Butyl-phenylamino)-7-(3-methyl-pyridin-2-yl)-quinazolin-2-ylmethyl]-phosphonic acid diethylester]	< 1000 nM
CCOP(=O)(O)Cc1nc(Nc2ccc(C(C)(C)C)cc2)c2ccc(-c3ncccc3C(F)(F)F)cc2n1 [Compound 18, [4-(4-tert-Butyl-phenylamino)-7-(3-trifluoromethyl-pyridin-2-yl)-quinazolin-2-ylmethyl]-phosphonicacid monoethyl ester]	< 1000 nM

Same assay, conditions: determined as described in Example 5; read-out: Ki

Compound	Ki
CC(C)(C)c1ccc(Nc2nc(COP(=O)(O)O)nc3cc(-c4ncccc4C(F)(F)F)ccc23)cc1 [Compound 7, Phosphoric acid mono-[4-(4-tert-butyl-phenylamino)-7-(3-trifluoromethyl-pyridin-2-yl)-quinazolin-2-ylmethyl] ester]	< 1000 nM
CC(C)(C)c1ccc(Nc2ncnc3cc(-c4ncccc4C(F)(F)F)ccc23)cc1OCCOP(=O)(O)O [Compound 31, Phosphoric acid mono-(2-{2-tert-butyl-5-[7-(3-trifluoromethyl-pyridin-2-yl)-quinazolin-4-ylamino]-phenoxy}-ethyl) ester]	< 1000 nM
CC(C)(C)c1ccc(Nc2nc(COP(=O)(OCc3ccccc3)OCc3ccccc3)nc3cc(-c4ncccc4C(F)(F)F)ccc23)cc1 [Compound 6, Phosphoric acid dibenzyl ester 4-(4-tert-butyl-phenylamino)-7-(3-trifluoromethyl-pyridin-2-yl)-quinazolin-2-ylmethyl ester]	< 1000 nM
CC(C)(C)c1ccc(Nc2ncnc3cc(-c4ncccc4C(F)(F)F)ccc23)cc1OCCN1CCC[C@H]1C(=O)O [Compound 22, (S)-1-(2-{2-tert-Butyl-5-[7-(3-trifluoromethyl-pyridin-2-yl)-quinazolin-4-ylamino]-phenoxy}-ethyl)-pyrrolidine-2-carboxylic acid]	< 1000 nM
Cc1nc(Nc2ccc(C(C)(C)C(=O)O)cc2)c2ccc(-c3ncccc3C)nc2n1 [Compound 19, 2-Methyl-2-{4-[2-methyl-7-(3-methyl-pyridin-2-yl)-pyrido[2,3-d]pyrimidin-4-ylamino]-phenyl}-propionic acid]	< 1000 nM
CC(C)(C)c1ccc(Nc2nc(N3CCC(C(=O)O)CC3)nc3nc(-c4ncccc4C(F)(F)F)ccc23)cc1 [Compound 44, 1-[4-(4-tert-Butyl-phenylamino)-7-(3-trifluoromethyl-pyridin-2-yl)-pyrido[2,3-d]pyrimidin-2-yl]-piperidine-4-carboxylic acid]	< 1000 nM
O=C(O)CNc1nc(Nc2ccc(C(F)(F)F)cc2)c2ccc(-c3ncccc3C(F)(F)F)cc2n1 [Compound 3, [4-(4-Trifluoromethyl-phenylamino)-7-(3-trifluoromethyl-pyridin-2-yl)-quinazolin-2-ylamino]-acetic acid]	< 1000 nM
CC(C)(C)c1ccc(Nc2ncnc3cc(-c4ncccc4C(F)(F)F)cnc23)cc1OCC(=O)O [Compound 13, {2-tert-Butyl-5-[7-(3-trifluoromethyl-pyridin-2-yl)-pyrido[3,2-d]pyrimidin-4-ylamino]-phenoxy}-acetic acid]	< 1000 nM
COCc1nc2nc(-c3ncccc3C(F)(F)F)ccc2c(Nc2ccc(C(F)(F)F)cc2)c1C(=O)O [Compound 45, 2-Methoxymethyl-4-(4-trifluoromethyl-phenylamino)-7-(3-trifluoromethyl-pyridin-2-yl)-[1,8]naphthyridine-3-carboxylic acid]	< 1000 nM
CC(C)(C)c1ccc(Nc2nc(CP(=O)(O)O)nc3cc(-c4ncccc4C(F)(F)F)ccc23)cc1 [Compound 32, [4-(4-tert-Butyl-phenylamino)-7-(3-trifluoromethyl-pyridin-2-yl)-quinazolin-2-ylmethyl]-phosphonicacid]	< 1000 nM
O=P(OCc1ccccc1)(OCc1ccccc1)OCc1nc(Nc2ccc(C(F)(F)F)cc2)c2ccc(-c3ncccc3C(F)(F)F)cc2n1 [Compound 8, Phosphoric acid dibenzyl ester 4-(4-trifluoromethyl-phenylamino)-7-(3-trifluoromethyl-pyridin-2-yl)-quinazolin-2-ylmethyl ester]	< 1000 nM

Target: T1, human capsaicin receptor
Experiment: Calcium mobilization assay
Type: cell-based
Conditions: capsaicin used as positive control; read-out: approximate EC90 concentration
Description: Cells transfected with expression plasmids (as described in Example 4) and thereby expressing human capsaicin receptor are seeded and grown to 70-90% confluency in FALCON black-walled, clear-bottomed 96-well plates (#3904, BECTON-DICKINSON, Franklin Lakes, N.J.). […] After the incubation, the dye is emptied from the plates, and the cells are washed once with KRH buffer, and resuspended in KRH buffer.
To measure the ability of a test compound to agonize or antagonize a calcium mobilization response in cells expressing capsaicin receptors to capsaicin or other vanilloid agonist, the EC50 of the agonist capsaicin is first determined. An additional 20 μl of KRH buffer and 1 μl DMSO is added to each well of cells, prepared as described above. 100 μl capsaicin in KRH buffer is automatically transferred by the FLIPR instrument to each well. Capsaicin-induced calcium mobilization is monitored using either FLUOROSKAN ASCENT (Labsystems; Franklin, Mass.) or FLIPR (fluorometric imaging plate reader system; Molecular Devices, Sunnyvale, Calif.) instruments. […] In this equation, y is the maximum fluorescence signal, x is the concentration of the agonist or antagonist (in this case, capsaicin), a is the Emax, b corresponds to the EC50 value and c is the Hill coefficient. […]

Compound	EC90
COc1cc(CNC(=O)CCCC/C=C/C(C)C)ccc1O [capsaicin]	~100 nM
